The target in assay [1] is human RORγt ligand binding domain (RORγt LBD) (Homo sapiens (Human), UniProt P51449). Nature of the assay: RORγt ThermoFluor® assay (thermal shift binding). Conditions: read-out: ThermoFluor® Assay, Kd. Put shortly:
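Binding was inferred from thermal stabilisation (ΔTm) of the E. coli-expressed RORγt LBD (0.065 mg/mL), monitored by 1,8-ANS (60 μM) emission at 500 nm during a 1 °C/min ramp. Buffer was Hepes 100 mM pH 7.0 with NaCl, GSH and Tween-20.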

Assay [2] deals with full-length human RORγt (Homo sapiens (Human), UniProt P51449). Put plainly: RORγt (full-length human) reporter assay, Conditions B or C. Type of assay: cell-based. Conditions: for RORγt (FL) Reporter Assay B or C, % inhibition (value marked *): marked *: footnote not given; for inhibition at 3 µM: at 3 μM compound concentration, read-out: RORγt (FL) Reporter Assay B or C, % inhibition; for RORγt (FL) Reporter Assay B or C, % inhibition (value marked ***): marked ***: footnote not given. Put shortly: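 Readout is dual luciferase: firefly (GAL4-driven) normalized to DMSO-only and saturating-reference controls, then to CMV-Renilla. Full-length human RORγt fused to GAL4-DBD was transiently expressed in HEK293T; compound exposure ran overnight (16-20 h) starting 4-6 h after transfection, final FBS 1.3%, DMSO 0.1%.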
Background: In a reporter assay the amount or activity of a reporter protein is the signal.

Where [3] appears, read: Conditions B or C, read-out: RORγt (FL) Reporter Assay B or C, IC50.
[4] abbreviates: read-out: RORγt (FL) Reporter Assay B or C, IC50.

Like-named read-outs stand apart in the source and are kept apart here.

Chain of human RORγt ligand binding domain (RORγt LBD) (P51449 other isoform, or with tags, fused parts or gaps): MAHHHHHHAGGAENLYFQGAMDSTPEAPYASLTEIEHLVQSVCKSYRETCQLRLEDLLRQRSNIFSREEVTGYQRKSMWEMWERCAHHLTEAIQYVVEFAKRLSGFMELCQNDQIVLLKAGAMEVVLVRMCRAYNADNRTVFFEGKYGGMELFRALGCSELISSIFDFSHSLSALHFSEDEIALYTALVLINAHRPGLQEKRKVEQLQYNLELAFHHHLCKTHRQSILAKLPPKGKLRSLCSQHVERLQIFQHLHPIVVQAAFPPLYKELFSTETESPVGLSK
Chain of full-length human RORγt (P51449 other isoform, or with tags, fused parts or gaps): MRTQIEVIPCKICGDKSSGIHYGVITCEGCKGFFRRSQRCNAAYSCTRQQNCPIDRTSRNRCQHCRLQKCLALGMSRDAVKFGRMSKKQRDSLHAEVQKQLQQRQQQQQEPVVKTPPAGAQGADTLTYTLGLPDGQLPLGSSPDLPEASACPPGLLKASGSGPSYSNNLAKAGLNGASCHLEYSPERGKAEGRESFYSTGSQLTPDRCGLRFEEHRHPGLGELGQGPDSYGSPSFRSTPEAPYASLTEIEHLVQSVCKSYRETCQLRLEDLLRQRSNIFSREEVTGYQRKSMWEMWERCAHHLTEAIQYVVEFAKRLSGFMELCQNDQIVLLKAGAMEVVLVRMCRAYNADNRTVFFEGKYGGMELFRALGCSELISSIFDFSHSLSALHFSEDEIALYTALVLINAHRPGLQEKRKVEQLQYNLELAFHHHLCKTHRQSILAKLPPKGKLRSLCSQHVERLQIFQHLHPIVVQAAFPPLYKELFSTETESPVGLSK

In the case of `CC[C@H](Nc1cc(C(F)F)c(-c2sc(C(=O)N[C@H]3CCC[C@@H]3O)nc2C(=O)N2CCC[C@@H]2C)cn1)C(F)(F)F` [Example 229, 5-(4-(Difluoromethyl)-6-(((1S)-1-(trifluoromethyl)propyl)amino)-3-pyridyl)-N-((1S,2S)-2-hydroxycyclopentyl)-4-((2S)-2-methylpyrrolidine-1-carbonyl)thiazole-2-carboxamide], the Kd (commonly a measure of binding affinity in units of concentration) in assay [1] was 0.97 nM. Also, in assay [2] (Conditions B or C), the “RORγt (FL) Reporter Assay B or C, % inhibition (value marked *)” value (“RORγt … % inhibition (value marked *)” below) is given as 83* %. Further, the IC50 (usually the midpoint of a concentration-inhibition curve) in assay [2] (setting [3]) came to 42 nM.
In the same order, the values of `C[C@H]1CCCN1C(=O)c1nc(C(=O)NCC2(O)CCC2)sc1-c1cnc(NC(C)(C)C)cc1C(F)(F)F` [Example 134, (S)-5-(6-(tert-Butylamino)-4-(trifluoromethyl)pyridin-3-yl)-N-((1-hydroxycyclobutyl)methyl)-4-(2-methylpyrrolidine-1-carbonyl)thiazole-2-carboxamide] are 1.2 nM, 108* % and 14 nM.
Regarding `O=C(N[C@H]1CC[C@@H]1O)c1nc(C(=O)N2C3CCC2CC3)c(-c2cnc(N[C@@H](C3CC3)C(F)(F)F)cc2C(F)F)s1` (relative stereo) [Example 444, 4-((1s,4s)-7-Azabicyclo[2.2.1]heptane-7-carbonyl)-5-(6-(((S)-1-cyclopropyl-2,2,2-trifluoroethyl)amino)-4-(difluoromethyl)pyridin-3-yl)-N-((1S*,2S*)-2-hydroxycyclobutyl)thiazole-2-carboxamide], the Kd in assay [1] worked out at 2.3 nM. Besides, the inhibition (usually the drop in the measured response relative to a control, in per cent) at 3 µM in assay [2] stood at 102%. For the same molecule, the concentration for half-maximal inhibition (IC50) in assay [2] (setting [4]) is 4.5 nM.
For the molecule `C[C@H]1CC(F)(F)CN1C(=O)c1nc(C(=O)NCC(C)(C)O)sc1-c1cnc(NC(C)(C)C)cc1C(F)(F)F` [Example 83, (S)-5-(6-(tert-Butylamino)-4-(trifluoromethyl)pyridin-3-yl)-4-(4,4-difluoro-2-methylpyrrolidine-1-carbonyl)-N-(2-hydroxy-2-methylpropyl)thiazole-2-carboxamide], in assay [1], the Kd is 0.55 nM. The “RORγt (FL) Reporter Assay B or C, % inhibition (value marked ***)” value in assay [2] (Conditions B or C) is 110*** %. For the same molecule, in assay [2] (setting [3]), the IC50 is 6.9 nM.
In the same order, the values of `CC[C@@H](Nc1cc(C(F)F)c(-c2sc(C(=O)N[C@H](C)CO)nc2C(=O)N2CCC[C@@H]2C)cn1)C(F)(F)F` [Example 206, 5-(4-(Difluoromethyl)-6-(((1R)-1-(trifluoromethyl)propyl)amino)-3-pyridyl)-N-((1R)-2-hydroxy-1-methyl-ethyl)-4-((2S)-2-methylpyrrolidine-1-carbonyl)thiazole-2-carboxamide] are 3.2 nM, 106*** % and 35 nM.
Regarding `C[C@H](Nc1cc(C(F)(F)F)c(-c2sc(C(=O)NCC(C)(C)O)nc2C(=O)N2CC(F)(F)C[C@@H]2C)cn1)C(F)(F)F` [Example 110, 4-((S)-4,4-Difluoro-2-methylpyrrolidine-1-carbonyl)-N-(2-hydroxy-2-methylpropyl)-5-(4-(trifluoromethyl)-6-(((S)-1,1,1-trifluoropropan-2-yl)amino)pyridin-3-yl)thiazole-2-carboxamide], the Kd in assay [1] was determined as 2.2 nM. Moreover, in assay [2] (Conditions B or C), the “RORγt … % inhibition (value marked *)” value is given as 112* %. Also, the IC50 in assay [2] (setting [3]) was found to be 26 nM.
Taken in the same sequence, the figures for `C[C@H]1CC(F)(F)CN1C(=O)c1nc(C(=O)N[C@H]2COC[C@H]2O)sc1-c1cnc(NC2(C)CCC2)cc1C(F)(F)F` (relative stereo) [Example 184, 4-((S)-4,4-Difluoro-2-methylpyrrolidine-1-carbonyl)-N-((3S*,4S*)-4-hydroxytetrahydrofuran-3-yl)-5-(6-((1-methylcyclobutyl)amino)-4-(trifluoromethyl)pyridine-3-yl)thiazole-2-carboxamide] were 0.7 nM, 92* % and 49 nM.
On to `C[C@H]1CCCN1C(=O)c1nc(C(=O)NCC(C)(C)O)sc1-c1cnc(NCC2(C(F)(F)F)CC2)cc1C(F)(F)F` [Example 125], for which, in assay [1], the dissociation constant Kd came to 2.4 nM. In addition, the “RORγt … % inhibition (value marked *)” value in assay [2] (Conditions B or C) was 100* %. Moreover, in assay [2] (setting [3]), the IC50 turned out to be 59 nM.
Take `C[C@H](Nc1cc(C(F)F)c(-c2sc(C(=O)N[C@H]3CCC[C@@H]3O)nc2C(=O)N2CCC[C@@H]2C)cn1)C(F)(F)F` [Example 285, 5-(4-(Difluoromethyl)-6-(((S)-1,1,1-trifluoropropan-2-yl)amino)pyridin-3-yl)-N-((1S,2S)-2-hydroxycyclopentyl)-4-((S)-2-methylpyrrolidine-1-carbonyl)thiazole-2-carboxamide]: the Kd in assay [1] was 2.9 nM. In assay [2], the inhibition at 3 µM was determined as 104%. Besides, in assay [2] (setting [4]), the IC50 was 64 nM.
As to `CC[C@H](Nc1cc(C(F)F)c(-c2sc(C(=O)N[C@H]3COC[C@@H]3O)nc2C(=O)N2C3CCC2CC3)cn1)C(F)(F)F` [Example 209, 4-((1s,4s)-7-Azabicyclo[2.2.1]heptane-7-carbonyl)-5-(4-(difluoromethyl)-6-(((1S)-1-(trifluoromethyl)propyl)amino)-3-pyridyl)-N-((3S,4R)-4-hydroxytetrahydrofuran-3-yl]thiazole-2-carboxamide], in assay [1], the Kd was 3.4 nM. Moreover, the “RORγt … % inhibition (value marked *)” value in assay [2] (Conditions B or C) is 99* %. In addition, in assay [2] (setting [3]), the 50% inhibitory concentration (IC50) worked out at 46 nM.
Take `C[C@H]1CCCN1C(=O)c1nc(C(=O)N[C@H]2C[C@H](O)C2)sc1-c1cnc(NC(C)(C)C)cc1C(F)F` [Example 400, 5-(6-(tert-Butylamino)-4-(difluoromethyl)pyridin-3-yl)-N-((1R,3S)-3-hydroxycyclobutyl)-4-((S)-2-methylpyrrolidine-1-carbonyl)thiazole-2-carboxamide]: in assay [1], the Kd came to 13 nM. In addition, the inhibition at 3 µM in assay [2] came to 84%. The IC50 in assay [2] (setting [4]) amounted to 56 nM.
Turning to `C[C@H](Nc1cc(C(F)F)c(-c2sc(C(=O)N[C@H]3CCC[C@@H]3O)nc2C(=O)N2C3CCC2CC3)cn1)C(F)(F)F` [Example 293, 4-((1s,4s)-7-Azabicyclo[2.2.1]heptane-7-carbonyl)-5-(4-(difluoromethyl)-6-(((S)-1,1,1-trifluoropropan-2-yl)amino)pyridin-3-yl)-N-((1S,2S)-2-hydroxycyclopentyl)thiazole-2-carboxamide], the Kd in assay [1] is 2 nM. In assay [2] (RORγt (FL) Reporter Assay B or C, IC50), this molecule returned a 50% inhibitory concentration (IC50) of 13 nM. Further, the inhibition at 3 µM in assay [2] was found to be 94%.
In the case of `C[C@@H](NC(=O)c1nc(C(=O)N2C3CCC2CC3)c(-c2cnc(NC3(C)CCC3)cc2C(F)F)s1)C(C)(C)O` [Example 329, 4-((1s,4s)-7-Azabicyclo[2.2.1]heptane-7-carbonyl)-5-(4-(difluoromethyl)-6-((1-methylcyclobutyl)amino)pyridin-3-yl)-N—((R)-3-hydroxy-3-methylbutan-2-yl)thiazole-2-carboxamide], the Kd in assay [1] was 1.7 nM. Besides, the inhibition at 3 µM in assay [2] turned out to be 89%. In addition, the IC50 in assay [2] (setting [4]) stood at 38 nM.
As to `C[C@H](O)[C@@H](C)NC(=O)c1nc(C(=O)N2CCC[C@@H]2C)c(-c2cnc(NC(C)(C)C)cc2C(F)(F)F)s1` (relative stereo) [Example 235, 5-(6-(tert-Butylamino)-4-(trifluoromethyl)pyridin-3-yl)-N-((2R*,3S*)-3-hydroxybutan-2-yl)-4-((S)-2-methylpyrrolidine-1-carbonyl)thiazole-2-carboxamide], the Kd in assay [1] was determined as 1.2 nM. Moreover, the “RORγt … % inhibition (value marked *)” value in assay [2] (Conditions B or C) was 106* %. Besides, the IC50 in assay [2] (setting [3]) was 34 nM.
Consider `C[C@H]1CCCN1C(=O)c1nc(C(=O)N[C@H](C)C(C)(C)O)sc1-c1cnc(NCC(C)(C)C)cc1C(F)(F)F` [Example 334, 5-[6-(2,2-Dimethylpropylamino)-4-(trifluoromethyl)-3-pyridyl]-N-[(1R)-2-hydroxy-1,2-dimethyl-propyl]-4-[(2S)-2-methylpyrrolidine-1-carbonyl]thiazole-2-carboxamide], for which the Kd in assay [1] was 1.4 nM. The inhibition at 3 µM in assay [2] stood at 106%. Also, in assay [2] (setting [4]), the IC50 is 7 nM.
For `CC(C)(O)CNC(=O)c1nc(C(=O)N2C3CCC2CC3)c(-c2cnc(NC3(C(F)(F)F)CCC3)cc2C(F)(F)F)s1` [Example 99, 4-((1s,4s)-7-Azabicyclo[2.2.1]heptane-7-carbonyl)-N-(2-hydroxy-2-methylpropyl)-5-(4-(trifluoromethyl)-6-((1-(trifluoromethyl)cyclobutyl)amino)pyridin-3-yl)thiazole-2-carboxamide], in assay [1], the Kd was determined as 0.58 nM. Further, the “RORγt … % inhibition (value marked *)” value in assay [2] (Conditions B or C) is 108* %. Moreover, in assay [2] (setting [3]), the IC50 is 11 nM.
As to `CC[C@H](Nc1cc(C(F)F)c(-c2sc(C(=O)NC3CS(=O)(=O)C3)nc2C(=O)N2CCC[C@@H]2C)cn1)C(F)(F)F` [Example 240, 5-[4-(Difluoromethyl)-6-[[(1S)-1-(trifluoromethyl)propyl]amino]-3-pyridyl]-N-(1,1-dioxothietan-3-yl)-4-[(2S)-2-methylpyrrolidine-1-carbonyl]thiazole-2-carboxamide], in assay [1], the Kd was 2.5 nM. Besides, in assay [2] (Conditions B or C), the “RORγt … % inhibition (value marked *)” value is given as 107* %. The IC50 in assay [2] (setting [3]) turned out to be 57 nM.
Taken in the same sequence, the figures for `C[C@H]1CCCN1C(=O)c1nc(C(=O)NCC2(O)CC2)sc1-c1cnc(NC2CCCC2)cc1C(F)F` [Example 2, (S)-5-(6-(Cyclopentylamino)-4-(difluoromethyl)pyridin-3-yl)-N-((1-hydroxycyclopropyl)methyl)-4-(2-methylpyrrolidine-1-carbonyl)thiazole-2-carboxamide] were 40 nM, 95* % and 77 nM.

The record behind these values is patent US10975068B2, “6-aminopyridin-3-yl thiazoles as modulators of RORγT” (Janssen Pharmaceutica NV, priority 2016, dated 2021).
